Test results reported in ChEMBL document CHEMBL4732144, “Discovery of a true bivalent dopamine D receptor agonist” (Eur J Med Chem, 2021).
Activity calls are given as the source filed them. The rule behind the calls is not given here.

Legend:
D(2) dopamine receptor [1] = molecular target: T1, D(2) dopamine receptor (Homo sapiens, UniProt P14416); assay: Displacement of [3H]raclopride from human D2R isoform 2 stably expressed in HEK293 cell membranes measured after 1 hr by liquid scintillation counting method; design: species or system Membrane
D(2) dopamine receptor [2] = molecular target: T1, D(2) dopamine receptor; assay: Agonist activity at human D2R isoform 2 stably expressed in HEK293 cells assessed as inhibition of forskolin-induced increase of cAMP accumulation preincubated for 10 mins followed by forskolin addition by Glosensor cAMP reagent based luminescence assay; assay type: functional, cell-based
D(2) dopamine receptor [3] = molecular target: T1, D(2) dopamine receptor; assay: Displacement of [3H]raclopride from human D2R isoform 2 stably expressed in HEK293 cell membranes measured after 1 hr by liquid scintillation counting method relative to IndAlk Ki; settings: Membrane
D(2) dopamine receptor [4] = molecular target: T1, D(2) dopamine receptor; assay: Displacement of [3H]raclopride from human D2R isoform 2 stably expressed in HEK293 cell membranes at 1 uM measured after 1 hr by liquid scintillation counting method; settings: Membrane, filed as agonist
D(2) dopamine receptor [5] = molecular target: T1, D(2) dopamine receptor; assay: Agonist activity at human D2R isoform 2 stably expressed in HEK293 cells assessed as inhibition of forskolin-induced increase of cAMP accumulation preincubated for 10 mins followed by forskolin addition by Glosensor cAMP reagent based luminescence assay relative to IndAlk EC50; assay type: functional, cell-based
D(2) dopamine receptor [6] = molecular target: T1, D(2) dopamine receptor; assay: Agonist activity at human D2R isoform 2 stably expressed in HEK293 cells assessed as inhibition of forskolin-induced increase of cAMP accumulation preincubated for 10 mins followed by forskolin addition by Glosensor cAMP reagent based luminescence assay relative to IndBipAlk EC50; assay type: functional, cell-based
D(2) dopamine receptor [7] = molecular target: T1, D(2) dopamine receptor; assay: Displacement of [3H]raclopride from human D2R isoform 2 stably expressed in HEK293 cell membranes measured after 1 hr by liquid scintillation counting method relative to IndBipAlk Ki; settings: Membrane

T1 sequence (P14416 whole entry, canonical isoform): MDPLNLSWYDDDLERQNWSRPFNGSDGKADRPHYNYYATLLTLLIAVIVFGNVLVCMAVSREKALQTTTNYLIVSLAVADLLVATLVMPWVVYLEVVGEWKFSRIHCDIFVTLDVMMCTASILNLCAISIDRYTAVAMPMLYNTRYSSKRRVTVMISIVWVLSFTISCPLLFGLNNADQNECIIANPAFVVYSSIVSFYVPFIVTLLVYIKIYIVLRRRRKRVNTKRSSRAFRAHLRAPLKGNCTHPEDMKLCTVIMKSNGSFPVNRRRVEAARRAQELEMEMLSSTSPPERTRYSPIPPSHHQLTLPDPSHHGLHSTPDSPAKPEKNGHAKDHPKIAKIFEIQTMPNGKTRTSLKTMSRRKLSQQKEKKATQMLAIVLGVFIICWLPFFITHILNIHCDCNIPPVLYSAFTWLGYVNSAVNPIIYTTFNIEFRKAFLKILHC

SMILES	Ki (D(2) dopamine receptor [1]) [nM]	EC50 (D(2) dopamine receptor [2]) [nM]	Ratio Ki (D(2) dopamine receptor [3])	inhibition (D(2) dopamine receptor [4])	Ratio EC50 (D(2) dopamine receptor [5])	Ratio EC50 (D(2) dopamine receptor [6])	Ratio Ki (D(2) dopamine receptor [7])
CCCN(CCCCc1cn(CCOCCOCCOCCn2cc(CCCCN(CCC)C3Cc4ccccc4C3)nn2)nn1)C1Cc2ccccc2C1	73	7.2	2.6	Active	0.5		
CCCN(CCCCc1cn(CCOCCOCCOCCOCCOCCn2cc(CCCCN(CCC)C3Cc4ccccc4C3)nn2)nn1)C1Cc2ccccc2C1	48	3.2	3.9	Active	1.1		
CCCN(CCCCNC(=O)c1ccc(-c2ccc(OCc3cn(CCOCCOCCOCCn4cc(COc5ccc(-c6ccc(C(=O)NCCCCN(CCC)C7Cc8ccccc8C7)cc6)cc5)nn4)nn3)cc2)cc1)C1Cc2ccccc2C1	270	292		Active		1.1	3.6
C#CCCCCN(CCC)C1Cc2ccccc2C1	189	3.4					
CCCN(CCCCNC(=O)c1ccc(-c2ccc(OCc3cn(CCOCCOCCOCCOCCn4cc(COc5ccc(-c6ccc(C(=O)NCCCCN(CCC)C7Cc8ccccc8C7)cc6)cc5)nn4)nn3)cc2)cc1)C1Cc2ccccc2C1	250	542		Active		0.6	3.9
CCCN(CCCCc1cn(CCOCCOCCOCCOCCn2cc(CCCCN(CCC)C3Cc4ccccc4C3)nn2)nn1)C1Cc2ccccc2C1	66	9.4	2.9	Active	0.4		
C#CCOc1ccc(-c2ccc(C(=O)NCCCCN(CCC)C3Cc4ccccc4C3)cc2)cc1	970	321					
CCCN(CCCCNC(=O)c1ccc(-c2ccc(OCc3cn(CCOCCOCCOCCOCCOCCn4cc(COc5ccc(-c6ccc(C(=O)NCCCCN(CCC)C7Cc8ccccc8C7)cc6)cc5)nn4)nn3)cc2)cc1)C1Cc2ccccc2C1	59	65		> 80%		4.9	16.4
